Results: article PMC5442318, “Hundreds of dual-stage antimalarial molecules discovered by a functional gametocyte screen” (Nature Communications, 2017)
Like-named read-outs stand apart in the source and are kept apart here.

How the values were obtained:
[1] = tested on: P. falciparum stage V female gametocytes; assay: P. falciparum female gametocyte activation assay (Pf FGAA), 24 h or 48 h preincubation, Pfs25 expression readout; type: cell-based, Plasmodium falciparum NF54; settings: mean, read-out: Gametocytes mean Pf FGAA IC50
Procedure: P. falciparum NF54 (originally isolated from an imported malaria case in the Netherlands in the 1980s; BEI Resources, cat. no. MRA-1000) asexual-stage culture was performed as described by Trager and Jensen[37]. Cultures synchronized at the ring stage were used to start gametocyte cultures (day 0) at 1% parasitaemia and 4% haematocrit in 200 ml final volume using culture bottles (Nalgene 3110-42, Thermo Scientific). Complete culture medium (RPMI 1640 supplemented with 25 mM HEPES, 50 μg ml^−1 hypoxanthine, 2 g l^−1 NaHCO3 and 10% pooled human male type A+ serum) was totally replaced daily for 14 days without fresh erythrocyte addition. Human serum was obtained from Interstate Blood Bank, A^+ serotype; no aspirin 2 h before drawing and no antimalarials 2 weeks before drawing. To ensure a stable temperature at 37 °C, which is crucial for gametocyte production and maturation, pre-warmed medium and a slide warmer (XH-2001, Premiere) were used. Under these conditions, parasitaemia reaches a peak of asexual stages on days 4–5, and the first gametocytes are differentiated in culture on day 6. Sexual-stage development was monitored microscopically by Giemsa-stained thin blood smears at day 7 (mainly asexual stages and stages I to III gametocytes) and day 14 (stages IV and V gametocytes).
Cultures showing mainly stage V gametocytes were purified by differential sedimentation as previously reported. The gametocyte concentration was adjusted to plate 8,000 gametocytes per well (100 μl per well) in 384-well poly-D-lysine coated plates (781946, Greiner Bio-One) containing the compounds to test. […] Female gametocyte activation was then triggered by temperature drop and addition of xanthurenic acid (D120804, Sigma) as previously described. To detect female gametes, monoclonal anti-Pfs25 antibody[38] 4B7 (BEI Resources (formerly MR4), cat. no. MRA-315) conjugated to the Cy3 fluorochrome (GE Healthcare) was added to ookinete medium (RPMI 1640 supplemented with 25 mM HEPES, 50 μg ml^−1 hypoxanthine, 2 g l^−1 NaHCO3, 100 μM xanthurenic acid and 20% human serum) at a final concentration of 0.5 μg ml^−1. Activated cultures were then kept at 26 °C for 24 h protected from light, and image acquisition was performed in the Opera High-Content Screening System (PerkinElmer). Using × 10 air objective, five images per well were taken using 532 nm excitation. Images were analysed with a Columbus image data storage and analysis system (PerkinElmer) based on a script specifically designed for this assay that considers size, roundness and intensity of fluorescence of the female activated gametocytes.
Compounds were dissolved in 100% DMSO and dispensed in the 384-well plates using an Echo-CRS liquid handler. Compounds were tested in 2–3 independent experiments. […] Based on that, Z′ factor was calculated for each plate and only those ones with values higher than 0.4 were considered acceptable for data analysis.
Assay performance statistics, such as signal to background ratio, Z′ and robust 3 s.d. activity cut-off were calculated using templates in ActivityBase XE (IDBS, Guilford, Surrey, UK). Hit population analysis and visualization were conducted using Spotfire DecisionSite (Spotfire, Inc., Somerville, MA, USA). The pIC50 (−log IC50) values were obtained using the ActivityBase XE nonlinear regression function in the full curve analysis bundle.

[2] = tested on: P. falciparum stages IV–V gametocytes; assay: Gametocytocidal ATP-depletion assay (gametocyte ATP bioluminescence); type: cell-based, Plasmodium falciparum
Procedure: In parallel, the set of confirmed hits from the Pf FGAA screen was cross-compared in the gametocyte ATP-depletion assay, at 2 μM single concentration (Supplementary Data 1). This assay monitors ATP levels as surrogate of gametocyte viability.
‘Viability' of mature gametocytes was determined using the gametocyte ATP bioluminiscence assay. Briefly, stages IV–V gametocyte cultures were double-purified by differential sedimentation followed by magnetic isolation. Then, parasites (50 μl per well containing 12,500 gametocytes) were added to compound pre-dispensed 384-well plates (781091, Greiner Bio-One) and incubated at 37 °C for 48 h (3% O2, 5% CO2 and 92% N2). BacTiter-Glo kit (G8231, Promega) was used to determine the ATP levels of ‘live' parasites according to the manufacturer's instructions. After reagent addition (50 μl per well), luminescence of the plates was measured using a microplate reader (HTS counter Victor, Wallac).

[3] = tested on: HepG2 cells; assay: HepG2 cytotoxicity assay; type: cell-based
Procedure: After incubation, plates and CellTiter-Glo Reagent (G7571, Promega) were equilibrated at room temperature for 30 min before proceeding to develop the luminescent signal. Using a Multidrop combi dispenser, 25 μl per well of the signal developer were added to the plates and after 10 min at room temperature for stabilization, plates were read on the ViewLux system (Perkin Elmer).

[4] = tested on: P. falciparum asexual blood stages; settings: read-out: Pf Asexual blood stages XC50, cited from earlier work
[5] = P. falciparum female gametocytes
[6] = TCAMS asexual blood stage data, ref 1 (Gamo, F. J. et al., Nature 465, 305-310, 2010)
[7] = TCAMS data, ref 1 (Gamo et al., 2010)

Compound | IC50 [1, 5] [nM] | IC50 [1] [nM] | IC50 ([1]; P. falciparum female gametocyte activation assay) [nM] | Gametocytes mean ATP inhibition at 2µM [2] [%] | HepG2 cells mean TOX50 ([3]; HepG2 cells; mean) [µM] | IC50 [4, 6] [nM] | Gametocytes mean ATP inhibition at 2µM (%) [2] [%] | HepG2 cells mean TOX50 ([3]; mean) [µM] | IC50 [4, 7] [nM] | HepG2 cells mean TOX50 ([3]; mean; HepG2 cells) [µM]
COc1cccc(OC)c1CN1CCC(N(C)CCCCCCCCN2CCC(OC(=O)Nc3ccccc3-c3ccccc3)CC2)CC1 [TCMDC-134684] | 2260 |  |  | 22.14 | 1.93 | 460 |  |  |  | 
CC(C)N1CCN(C(CN2CCN(CCCOc3ccc(-c4ccccc4)cc3)CC2)c2ccc(F)cc2)CC1.Cl (stereo not shown) [TCMDC-135497] | 1420 |  |  | 6.50 | 2.29 | 680 |  |  |  | 
CC(C)(C)c1ccc(CN2CCC(CNC(=O)c3cc(-c4cccc(Cl)c4)cs3)C2)cc1.O=C(O)C(F)(F)F (stereo not shown) [TCMDC-134446] | 990 |  |  | -13.17 | 7.42 | 1160 |  |  |  | 
COc1cc2nc(NCc3cccc(CNC(=O)c4ccc(-c5ccc(C(C)=O)cc5)cc4)c3)nc(N)c2cc1OC.O=C(O)C(F)(F)F [TCMDC-138177] |  | 4730 |  |  |  |  | -19.05 | 6.82 | 120 | 
Fc1ccc2nc(Nc3nc(-c4ccccn4)cs3)sc2c1 [TCMDC-125540] | 54.3 |  |  | 71.05 | 58.31 | 560 |  |  |  | 
COc1ccc2ccccc2c1CNCCCCCCNCc1c(OC)ccc2ccccc12.Cl [TCMDC-137915] |  | 700 |  |  |  |  | 20.95 | 4.22 | 710 | 
CC(Cc1ccc(OCCCCOc2ccccc2)cc1)NCCC1CCCN1C (stereo not shown) [TCMDC-140017] |  | 200 |  |  |  |  | 85.16 | 1.12 | 40 | 

Now from value to compound, other results behind:

IC50 [1, 5] [nM] | IC50 [1] [nM] | IC50 ([1]; P. falciparum female gametocyte activation assay) [nM] | Compound | Gametocytes mean ATP inhibition at 2µM [2] [%] | HepG2 cells mean TOX50 ([3]; HepG2 cells; mean) [µM] | IC50 [4, 6] [nM] | Gametocytes mean ATP inhibition at 2µM (%) [2] [%] | HepG2 cells mean TOX50 ([3]; mean) [µM] | IC50 [4, 7] [nM] | HepG2 cells mean TOX50 ([3]; mean; HepG2 cells) [µM]
1350 |  |  | Cc1ccc(-c2nc3cc(NC(=O)c4ccc([N+](=O)[O-])o4)ccc3o2)cc1Cl [TCMDC-123657] | 8.99 | 1.72 | 160 |  |  |  | 
 | 640 |  | CCCCCCCCN1CCN(CCCCCCNc2c3ccccc3nc3ccccc23)CC1.Cl [TCMDC-138015] |  |  |  | 57.24 | 3.35 | 160 | 
1310 |  |  | COc1cccc(OC)c1CN1CCC(N(C)CCCCCCCCCN2CCC(OC(=O)Nc3ccccc3-c3ccccc3)CC2)CC1 [TCMDC-134690] | 15.06 | 1.91 | 320 |  |  |  | 
1910 |  |  | Cc1ccnc(NC(c2cccc(Cl)c2Cl)c2ccc3cccnc3c2O)c1 (stereo not shown) [TCMDC-123997] | 90.58 | 45.69 | 1000 |  |  |  | 
 |  | 900 | Cl.OC(CNCCCCCCNCC(O)c1ccc(Cl)c(Cl)c1)c1ccc(Cl)c(Cl)c1 (stereo not shown) [TCMDC-141987] | 0.38 |  | 920 |  |  |  | 4.27
 | 1020 |  | Cl.c1ccc2c(NCCCCCCCCNc3ccnc4ccccc34)ccnc2c1 [TCMDC-137751] |  |  |  | 39.31 | 1.15 | 160 | 
